Structures are written as SMILES.

This is an account of results in US9073875B2, “Compounds useful as inhibitors of indoleamine 2,3-dioxygenase” (Vertex Pharmaceuticals Incorporated, priority 2012, dated 2015).

For this experiment, the target named is T1, IDO1 (Homo sapiens, UniProt P14902).
T1 construct: HeLa cells in which IDO1 expression is induced by IFN-γ; endogenous in cells; host or cells: HeLa cells stimulated with human recombinant IFN-γ
In words: Cellular IDO1 Inhibition Assay (L-kynurenine production by IFN-γ-stimulated HeLa cells). In kind it is cell-based. As to conditions: IDO1 induced by IFN-γ, 250 μM L-tryptophan, 48 hours, L-kynurenine by Ehrlich's reagent, maximal concentration 40 μM. On the procedure:
Compounds can be screened for their ability to inhibit intracellular IDO1 activity, by measuring the production of L-kynurenine by HeLa cells in which IDO1 expression is induced by IFN-γ. Kynurenine levels can be determined by chemical conversion of L-kynurenine with Ehrlich's reagent (Yue et. al., J Med Chem 2009 Dec. 10; 52(23):7364-7).
HeLa cells were plated at 20,000 cells per well in 96-well culture plates (Costar 3598) in DMEM (Sigma D5671) supplemented with 10% fetal bovine serum (SAFC Biosciences 12003C), Penicillin/Streptomycin solution diluted 1:100 (Sigma P7539), 4 mM L-glutamine (Sigma G7513), 1% Non Essential Aminoacids (Sigma M7145) and 1 mM Sodium Pyruvate (Sigma S8636). Cells were allowed to adhere for 24 hours at 37° C. in 5% CO2. Subsequently compounds were first serially diluted 1/3 in DMSO then further diluted in media and finally added to the cells, giving a maximal final concentration of 40 μM. Additional medium containing L-tryptophan to a final concentration of 250 μM (Sigma T0254) and human recombinant IFN-γ (R&D Systems 285-IF) were added to the wells to stimulate IDO1 production. Cells were incubated at 37° C. in 5% CO2 for 48 hours.
For the measurement of L-kynurenine in HeLa supernatants, plates were centrifuged at 1000 RPM for 5 minutes and 140 μl of media transferred into a polypropylene 96 well plate (Costar 3879) containing 10 μl of 26% Trichloroacetic Acid in water (Sigma T9159). Plates were then sealed using a plate sealer (PlateLoc, Agilent Technology) and incubated at 50° C. for 30 minutes. Plates were centrifuged at 2400 RPM for 10 minutes and 100 μl of media transferred to polystyrene 96-well plates together with 100 μl of Ehrlich's reagent (2% p-Dimethylaminobenzaldehyde, (Sigma D2004) in acetic acid (Fisher, A/400/PB17)). Following the addition of Ehrlich's reagent the absorbance at 490 nm was read using a spectrophotometer (Spectramax Plus, Molecular Devices). Kynurenine levels were plotted against compound concentrations to generate dose response curves and obtain […] values for each active compound using Genedata Screener® Software.
Cellular […] values for each compound may be found in Table 2, below, wherein A=<0.1 μM; B=0.1 μM-1 μM; and C=1 μM-40 μM.

T1 sequence (P14902 whole entry): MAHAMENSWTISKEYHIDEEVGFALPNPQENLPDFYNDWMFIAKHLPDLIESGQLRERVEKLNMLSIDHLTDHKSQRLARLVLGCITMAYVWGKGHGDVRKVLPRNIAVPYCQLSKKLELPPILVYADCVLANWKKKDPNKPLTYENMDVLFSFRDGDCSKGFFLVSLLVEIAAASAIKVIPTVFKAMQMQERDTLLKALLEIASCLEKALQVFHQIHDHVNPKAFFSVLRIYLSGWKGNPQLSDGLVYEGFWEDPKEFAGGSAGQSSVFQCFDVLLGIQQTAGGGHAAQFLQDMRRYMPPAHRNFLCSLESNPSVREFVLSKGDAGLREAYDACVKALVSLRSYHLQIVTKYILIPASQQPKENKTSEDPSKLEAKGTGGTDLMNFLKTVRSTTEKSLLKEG

As for `CCc1cc(Cl)ccc1Nc1cnn[nH]1` [Compound I-1], the IC50 was less than 0.1 µM.

`Clc1ccc(Nc2cn[nH]n2)cc1` [Compound I-2] came in with an IC50 of less than 0.1 µM. On to `Brc1ccc(Nc2c[nH]nn2)cc1` [Compound I-3], for which the half-maximal inhibitory concentration (IC50) is less than 0.1 µM.

The compound `COCc1cc(Cl)ccc1Nc1cnn[nH]1` [Compound I-4] returned an IC50 of less than 0.1 µM. With `Cc1cc(Cl)ccc1Nc1c[nH]nn1` [Compound I-5], the IC50 is less than 0.1 µM. Turning to `COCCc1cc(Cl)ccc1Nc1cn[nH]n1` [Compound I-6], the half-maximal inhibitory concentration (IC50) is less than 0.1 µM.

Take `CCc1cc(Nc2cnn[nH]2)ccc1Cl` [Compound I-7]: the concentration for half-maximal inhibition (IC50) was in the range of 0.1 to 1 µM. Under `COc1cc(Nc2cn[nH]n2)ccc1Cl` [Compound I-8] stands 0.1 to 1 µM.

As for `OCc1cc(Cl)ccc1Nc1cnn[nH]1` [Compound I-9, (2-((2H-1,2,3-triazol-4-yl)amino)-5-chlorophenyl)methanol], the IC50 fell in the range of 0.1 to 1 µM. Under `Clc1ccc(Nc2c[nH]nn2)c(OCCN2CCOCC2)c1` [Compound I-10] stands 0.1 to 1 µM; under `Clc1cccc(Nc2cnn[nH]2)c1` [Compound I-11], 0.1 to 1 µM; under `COc1cc(Cl)ccc1Nc1cn[nH]n1` [Compound I-12], 0.1 to 1 µM. `Fc1ccc(Nc2cnn[nH]2)cc1Cl` [Compound I-13, N-(3-chloro-4-fluorophenyl)-2H-1,2,3-triazol-4-amine] registered a half-inhibitory concentration (IC50) of 0.1 to 1 µM.

`Fc1cc(Nc2c[nH]nn2)ccc1Cl` [Compound I-14] showed a 50% inhibitory concentration (IC50) of 0.1 to 1 µM. The compound `Cc1cc(Cl)cc(C)c1Nc1cnn[nH]1` [Compound I-15] yielded a 50% inhibitory concentration (IC50) of 0.1 to 1 µM. `Clc1cc(Cl)cc(Nc2cn[nH]n2)c1` [Compound I-16] yielded an IC50 of 0.1 to 1 µM. Compound `CNS(=O)(=O)CCc1cc(Cl)ccc1Nc1cnn[nH]1` [Compound I-17] returned a half-inhibitory concentration (IC50) of 0.1 to 1 µM. `Fc1ccc(Nc2cnn[nH]2)cc1Br` [Compound I-18] showed a half-inhibitory concentration (IC50) of 0.1 to 1 µM. For the compound `Clc1ccc(Nc2cnn[nH]2)cc1Cl` [Compound I-19], the 50% inhibitory concentration (IC50) is 0.1 to 1 µM. Turning to `CC(=O)NCc1cc(Cl)ccc1Nc1cnn[nH]1` [Compound I-20, N-(2-((2H-1,2,3-triazol-4-yl)amino)-5-chlorobenzyl)acetamide], the half-inhibitory concentration (IC50) lay in the range of 0.1 to 1 µM. The compound `CS(=O)(=O)NCc1cc(Cl)ccc1Nc1cnn[nH]1` [Compound I-21] showed an IC50 of 1 to 40 µM. For the compound `Clc1ccc(Nc2cnn[nH]2)cn1` [Compound I-22, 6-chloro-N-(2H-1,2,3-triazol-4-yl)pyridin-3-amine], the half-inhibitory concentration (IC50) lay within 1 to 40 µM. As to `CN(Cc1cc(Cl)ccc1Nc1c[nH]nn1)C(=O)OC(C)(C)C` [Compound I-23], the IC50 was 1 to 40 µM. Take `Fc1ccc(Nc2cnn[nH]2)cc1` [Compound I-24]: the IC50 fell in the range of 0.1 to 1 µM.

`Clc1ccc(Nc2cn[nH]n2)c(I)c1` [Compound I-25] gave a half-inhibitory concentration (IC50) of 1 to 40 µM.

Consider `Clc1ccc(Nc2cnn[nH]2)c(Cl)c1` [Compound I-27], for which the half-inhibitory concentration (IC50) fell in the range of 1 to 40 µM. `O=C(O)C1CC(Cc2cc(Cl)ccc2Nc2cn[nH]n2)C1` (centres unmarked) [Compound I-28, 3-(2-((2H-1,2,3-triazol-4-yl)amino)-5-chlorobenzyl)cyclobutanecarboxylic acid]: the IC50 is 1 to 40 µM. On to `Clc1ccccc1Nc1cnn[nH]1` [Compound I-29], for which the IC50 fell in the range of 1 to 40 µM. On to `Fc1cc(Cl)ccc1Nc1cnn[nH]1` [Compound I-30], for which the half-inhibitory concentration (IC50) is 1 to 40 µM. `O=C(O)CCc1cc(Cl)ccc1Nc1cn[nH]n1` [Compound I-31]: the 50% inhibitory concentration (IC50) lay in the range of 1 to 40 µM. As for `CC(C)C(Cc1cc(Cl)ccc1Nc1cn[nH]n1)C(=O)O` (centres unmarked) [Compound I-32], the half-inhibitory concentration (IC50) was in the range of 1 to 40 µM.

In the case of `CC(C)(Cc1cc(Cl)ccc1Nc1cn[nH]n1)C(=O)O` [Compound I-33, 3-(2-((2H-1,2,3-triazol-4-yl)amino)-5-chlorophenyl)-2,2-dimethylpropanoic acid], the half-maximal inhibitory concentration (IC50) is 1 to 40 µM.

Compound `NCc1cc(Cl)ccc1Nc1cnn[nH]1` [Compound I-34, N-(2-(aminomethyl)-4-chlorophenyl)-2H-1,2,3-triazol-4-amine] yielded a 50% inhibitory concentration (IC50) of 1 to 40 µM. `CC(C)(C)C(Cc1cc(Cl)ccc1Nc1cn[nH]n1)C(=O)O` (centres unmarked) [Compound I-35]: the 50% inhibitory concentration (IC50) was 1 to 40 µM. Under `Cc1cc(F)ccc1Nc1c[nH]nn1` [Compound I-36, N-(4-fluoro-2-methylphenyl)-2H-1,2,3-triazol-4-amine] stands less than 0.1 µM.

Compound `Brc1cccc(Nc2cn[nH]n2)c1` [Compound I-37] displayed an IC50 of 0.1 to 1 µM. Under `Cc1cc(Nc2cnn[nH]2)ccc1Cl` [Compound I-38] stands 0.1 to 1 µM; under `Cc1c(Cl)cccc1Nc1cnn[nH]1` [Compound I-39], 0.1 to 1 µM; under `C=Cc1cc(Cl)ccc1Nc1cnn[nH]1` [Compound I-40], less than 0.1 µM. Take `Cc1cc(Cl)cc(Nc2cnn[nH]2)c1` [Compound I-41]: the 50% inhibitory concentration (IC50) lay within 0.1 to 1 µM.

The compound `Cc1ccc(Cl)cc1Nc1cnn[nH]1` [Compound I-42] returned an IC50 of less than 0.1 µM.

`CN(C)S(=O)(=O)CCc1cc(Cl)ccc1Nc1cnn[nH]1` [Compound I-43] came in with an IC50 of 0.1 to 1 µM. `N#Cc1cc(Nc2cn[nH]n2)ccc1Cl` [Compound I-44, 5-((2H-1,2,3-triazol-4-yl)amino)-2-chlorobenzonitrile] gave a concentration for half-maximal inhibition (IC50) of 0.1 to 1 µM. `Fc1cccc(Nc2cnn[nH]2)c1` [Compound I-45, N-(3-fluorophenyl)-2H-1,2,3-triazol-4-amine] came in with an IC50 of 0.1 to 1 µM. Next, `Clc1ccc(Nc2cnn[nH]2)c(CCN2CCOCC2)c1` [Compound I-46]: 0.1 to 1 µM. Under `Clc1ccc(Nc2cnn[nH]2)c(CCCN2CCOCC2)c1` [Compound I-47] stands 0.1 to 1 µM; under `CN1CCN(CCOc2cc(Cl)ccc2Nc2cnn[nH]2)CC1` [Compound I-48], 0.1 to 1 µM.
